Key:
[1] = target: T1, Muscarinic acetylcholine receptor M2 (Homo sapiens, UniProt P08172)
T1 sequence (P08172 whole entry): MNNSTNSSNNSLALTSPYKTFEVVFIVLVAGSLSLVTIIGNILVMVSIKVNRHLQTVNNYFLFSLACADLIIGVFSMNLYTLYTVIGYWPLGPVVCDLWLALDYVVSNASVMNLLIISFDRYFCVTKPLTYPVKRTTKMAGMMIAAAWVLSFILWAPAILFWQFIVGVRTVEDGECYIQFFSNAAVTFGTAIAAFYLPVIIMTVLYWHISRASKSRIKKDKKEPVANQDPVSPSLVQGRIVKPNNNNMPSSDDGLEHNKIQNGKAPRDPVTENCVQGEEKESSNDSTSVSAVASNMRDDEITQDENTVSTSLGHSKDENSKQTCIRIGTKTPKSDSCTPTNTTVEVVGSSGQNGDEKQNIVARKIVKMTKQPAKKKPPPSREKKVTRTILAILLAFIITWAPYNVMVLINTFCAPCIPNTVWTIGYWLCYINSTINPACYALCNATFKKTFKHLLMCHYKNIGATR

Adenosine receptor A3 = target: T2, Adenosine receptor A3 (Homo sapiens, UniProt P0DMS8)
T2 sequence (P0DMS8 whole entry): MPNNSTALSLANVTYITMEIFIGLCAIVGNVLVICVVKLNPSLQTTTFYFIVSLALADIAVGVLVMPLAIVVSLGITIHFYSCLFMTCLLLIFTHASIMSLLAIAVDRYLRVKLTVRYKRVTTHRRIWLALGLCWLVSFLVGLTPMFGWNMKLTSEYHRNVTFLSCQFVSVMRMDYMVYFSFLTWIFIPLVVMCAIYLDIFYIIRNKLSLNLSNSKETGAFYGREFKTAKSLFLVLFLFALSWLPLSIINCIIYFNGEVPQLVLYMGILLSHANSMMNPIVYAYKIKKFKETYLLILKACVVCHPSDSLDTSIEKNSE

[2] = target: Sodium-dependent dopamine transporter (Homo sapiens, UniProt Q01959)
[3] = target: T3, Amine oxidase [flavin-containing] A (Homo sapiens, UniProt P21397); assay type: functional
T3 sequence (P21397 whole entry): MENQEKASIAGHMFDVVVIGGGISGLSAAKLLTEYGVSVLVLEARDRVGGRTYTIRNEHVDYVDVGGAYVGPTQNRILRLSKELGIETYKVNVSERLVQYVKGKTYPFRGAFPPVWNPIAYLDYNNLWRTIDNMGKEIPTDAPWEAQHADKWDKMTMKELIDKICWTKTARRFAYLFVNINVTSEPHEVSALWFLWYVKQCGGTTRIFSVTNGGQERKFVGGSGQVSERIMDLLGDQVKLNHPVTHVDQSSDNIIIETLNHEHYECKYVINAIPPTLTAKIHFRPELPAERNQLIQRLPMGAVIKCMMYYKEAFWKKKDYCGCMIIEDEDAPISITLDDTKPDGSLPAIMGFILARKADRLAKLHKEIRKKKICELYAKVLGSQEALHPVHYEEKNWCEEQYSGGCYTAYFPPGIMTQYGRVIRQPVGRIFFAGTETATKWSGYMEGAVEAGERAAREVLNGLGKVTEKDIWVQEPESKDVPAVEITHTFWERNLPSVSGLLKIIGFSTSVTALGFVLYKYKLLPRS

[4] = target: 5-hydroxytryptamine receptor 2B (Homo sapiens, UniProt P41595); assay type: functional, cell-based
Estrogen receptor = target: T4, Estrogen receptor (Homo sapiens, UniProt P03372)
T4 sequence (P03372 whole entry): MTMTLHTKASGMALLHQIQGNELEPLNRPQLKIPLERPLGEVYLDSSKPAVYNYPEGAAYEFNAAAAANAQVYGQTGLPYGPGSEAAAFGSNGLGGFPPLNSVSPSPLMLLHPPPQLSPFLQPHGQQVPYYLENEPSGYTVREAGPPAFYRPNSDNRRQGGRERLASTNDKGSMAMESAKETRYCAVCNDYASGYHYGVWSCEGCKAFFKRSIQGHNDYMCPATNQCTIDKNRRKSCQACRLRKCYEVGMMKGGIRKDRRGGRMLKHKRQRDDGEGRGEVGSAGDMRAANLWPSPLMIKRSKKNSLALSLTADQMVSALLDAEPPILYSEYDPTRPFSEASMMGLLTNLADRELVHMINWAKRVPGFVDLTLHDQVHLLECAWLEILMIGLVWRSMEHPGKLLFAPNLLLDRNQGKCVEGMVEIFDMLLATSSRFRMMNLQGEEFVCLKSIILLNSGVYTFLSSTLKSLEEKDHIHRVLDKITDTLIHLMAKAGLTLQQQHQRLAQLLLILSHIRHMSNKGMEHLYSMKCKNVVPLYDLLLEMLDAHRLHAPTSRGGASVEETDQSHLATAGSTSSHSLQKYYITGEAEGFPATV

Histamine H3 receptor = Histamine H3 receptor (Homo sapiens, UniProt Q9Y5N1)
Mu-type opioid receptor = Mu-type opioid receptor (Homo sapiens, UniProt P35372)
B2 bradykinin receptor = target: T5, B2 bradykinin receptor (Homo sapiens, UniProt P30411)
T5 sequence (P30411 whole entry): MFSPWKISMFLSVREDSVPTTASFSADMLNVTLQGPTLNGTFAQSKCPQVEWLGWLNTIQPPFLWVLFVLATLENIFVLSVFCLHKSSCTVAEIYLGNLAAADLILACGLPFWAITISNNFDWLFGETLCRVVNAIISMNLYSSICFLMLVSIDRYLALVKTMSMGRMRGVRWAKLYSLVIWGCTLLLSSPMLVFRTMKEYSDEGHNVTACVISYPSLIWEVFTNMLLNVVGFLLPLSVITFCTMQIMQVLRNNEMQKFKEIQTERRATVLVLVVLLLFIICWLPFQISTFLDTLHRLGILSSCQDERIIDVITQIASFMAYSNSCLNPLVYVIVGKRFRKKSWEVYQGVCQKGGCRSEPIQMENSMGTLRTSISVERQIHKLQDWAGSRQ

Melanocortin receptor 4 = Melanocortin receptor 4 (Homo sapiens, UniProt P32245)
[5] = target: Sodium-dependent serotonin transporter (Homo sapiens, UniProt P31645)
Further: assay procedure not described here.

Sequence of Sodium-dependent serotonin transporter (P31645 whole entry): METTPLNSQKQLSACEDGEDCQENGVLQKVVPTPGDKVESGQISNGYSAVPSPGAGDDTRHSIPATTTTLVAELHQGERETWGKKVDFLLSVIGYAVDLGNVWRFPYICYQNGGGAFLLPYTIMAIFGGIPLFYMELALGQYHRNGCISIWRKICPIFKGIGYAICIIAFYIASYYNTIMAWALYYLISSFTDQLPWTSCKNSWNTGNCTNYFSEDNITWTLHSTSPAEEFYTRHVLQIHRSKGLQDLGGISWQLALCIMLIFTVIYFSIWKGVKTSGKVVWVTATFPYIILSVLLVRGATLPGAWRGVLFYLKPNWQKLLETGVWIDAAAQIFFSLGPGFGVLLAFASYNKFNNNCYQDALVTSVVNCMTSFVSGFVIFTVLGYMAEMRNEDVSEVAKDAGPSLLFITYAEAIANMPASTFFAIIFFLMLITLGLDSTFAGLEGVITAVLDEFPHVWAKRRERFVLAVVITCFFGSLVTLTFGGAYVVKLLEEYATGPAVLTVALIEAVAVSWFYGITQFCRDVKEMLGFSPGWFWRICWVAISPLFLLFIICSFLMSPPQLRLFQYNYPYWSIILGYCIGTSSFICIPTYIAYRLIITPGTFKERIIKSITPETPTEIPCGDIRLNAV
Sequence of 5-hydroxytryptamine receptor 2B (P41595 whole entry): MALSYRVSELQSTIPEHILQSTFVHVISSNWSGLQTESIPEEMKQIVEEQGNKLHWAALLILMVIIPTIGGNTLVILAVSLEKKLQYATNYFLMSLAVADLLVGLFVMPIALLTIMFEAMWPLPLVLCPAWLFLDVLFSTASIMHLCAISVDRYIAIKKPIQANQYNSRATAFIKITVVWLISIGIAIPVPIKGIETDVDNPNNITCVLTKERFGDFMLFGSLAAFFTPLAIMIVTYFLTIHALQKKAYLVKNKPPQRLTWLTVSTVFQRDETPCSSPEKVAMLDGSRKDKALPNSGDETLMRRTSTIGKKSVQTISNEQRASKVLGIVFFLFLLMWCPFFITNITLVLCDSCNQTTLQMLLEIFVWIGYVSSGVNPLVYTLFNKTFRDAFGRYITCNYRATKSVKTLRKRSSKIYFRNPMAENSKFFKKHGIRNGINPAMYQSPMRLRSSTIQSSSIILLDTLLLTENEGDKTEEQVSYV
Sequence of Mu-type opioid receptor (P35372 whole entry): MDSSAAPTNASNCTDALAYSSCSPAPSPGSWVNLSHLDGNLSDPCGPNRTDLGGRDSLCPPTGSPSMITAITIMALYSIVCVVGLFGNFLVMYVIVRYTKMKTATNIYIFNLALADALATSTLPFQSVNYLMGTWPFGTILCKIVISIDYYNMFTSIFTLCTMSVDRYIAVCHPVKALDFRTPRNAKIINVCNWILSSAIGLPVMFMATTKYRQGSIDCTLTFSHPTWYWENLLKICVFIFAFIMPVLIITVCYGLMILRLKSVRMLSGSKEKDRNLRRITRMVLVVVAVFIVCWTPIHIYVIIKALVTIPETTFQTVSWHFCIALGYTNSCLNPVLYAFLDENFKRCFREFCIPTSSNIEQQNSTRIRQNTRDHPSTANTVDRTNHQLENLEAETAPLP
Sequence of Melanocortin receptor 4 (P32245 whole entry): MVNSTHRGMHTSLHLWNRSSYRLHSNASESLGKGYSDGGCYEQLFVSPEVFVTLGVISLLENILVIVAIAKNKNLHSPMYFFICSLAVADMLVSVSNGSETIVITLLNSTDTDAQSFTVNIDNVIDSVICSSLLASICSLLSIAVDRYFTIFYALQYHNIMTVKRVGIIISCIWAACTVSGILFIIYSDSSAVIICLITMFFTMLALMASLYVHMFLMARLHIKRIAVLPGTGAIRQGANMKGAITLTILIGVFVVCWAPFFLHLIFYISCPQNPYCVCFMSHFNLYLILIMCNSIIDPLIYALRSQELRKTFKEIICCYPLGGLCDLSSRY
Sequence of Sodium-dependent dopamine transporter (Q01959 whole entry): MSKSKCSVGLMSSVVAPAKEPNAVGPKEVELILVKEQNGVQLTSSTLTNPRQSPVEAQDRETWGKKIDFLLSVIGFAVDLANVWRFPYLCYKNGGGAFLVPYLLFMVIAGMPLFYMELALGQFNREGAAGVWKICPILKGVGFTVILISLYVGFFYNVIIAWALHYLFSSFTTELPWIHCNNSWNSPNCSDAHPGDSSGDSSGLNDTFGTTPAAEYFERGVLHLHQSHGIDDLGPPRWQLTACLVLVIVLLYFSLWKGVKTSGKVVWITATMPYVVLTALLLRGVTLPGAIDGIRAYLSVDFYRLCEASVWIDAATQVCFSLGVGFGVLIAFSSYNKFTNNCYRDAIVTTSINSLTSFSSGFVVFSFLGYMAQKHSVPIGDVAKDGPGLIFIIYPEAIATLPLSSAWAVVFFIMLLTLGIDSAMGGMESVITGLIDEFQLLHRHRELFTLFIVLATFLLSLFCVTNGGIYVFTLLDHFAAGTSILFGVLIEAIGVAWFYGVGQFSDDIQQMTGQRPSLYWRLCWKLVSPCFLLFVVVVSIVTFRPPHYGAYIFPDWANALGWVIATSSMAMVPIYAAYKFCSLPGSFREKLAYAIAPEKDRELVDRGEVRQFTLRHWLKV
Sequence of Histamine H3 receptor (Q9Y5N1 whole entry): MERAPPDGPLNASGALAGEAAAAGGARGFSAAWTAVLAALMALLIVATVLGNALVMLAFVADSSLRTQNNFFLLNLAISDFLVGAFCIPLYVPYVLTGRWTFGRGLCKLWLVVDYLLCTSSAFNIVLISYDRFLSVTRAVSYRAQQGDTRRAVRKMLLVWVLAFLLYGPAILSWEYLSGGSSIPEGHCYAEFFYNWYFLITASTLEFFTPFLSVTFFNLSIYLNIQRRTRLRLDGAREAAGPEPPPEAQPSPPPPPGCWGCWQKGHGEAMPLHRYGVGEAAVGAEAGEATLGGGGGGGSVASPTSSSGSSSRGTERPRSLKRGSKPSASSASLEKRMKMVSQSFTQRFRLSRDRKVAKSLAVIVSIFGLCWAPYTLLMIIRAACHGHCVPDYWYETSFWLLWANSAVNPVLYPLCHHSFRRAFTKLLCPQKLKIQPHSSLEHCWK

Structure (SMILES) | AC50 [1] | AC50 (Adenosine receptor A3) | AC50 [2] | AC50 [3] | AC50 [4] | AC50 (Estrogen receptor) | AC50 (Histamine H3 receptor) | AC50 (Mu-type opioid receptor) | AC50 (B2 bradykinin receptor) | AC50 (Melanocortin receptor 4) | AC50 [5]
Sc1ncnc2nc[nH]c12 [MERCAPTOPURINE ANHYDROUS] | > 30 µM | > 30 µM | > 30 µM | > 30 µM | > 30 µM | > 30 µM | – | – | – | – | –
Cc1cc(O)cc(C)c1Cl [CHLOROXYLENOL] | > 30 µM | > 30 µM | > 30 µM | > 30 µM | > 30 µM | – | – | – | – | – | –
CN(C)CCCN1c2ccccc2CCc2ccc(Cl)cc21 [CLOMIPRAMINE] | 0.451 µM | – | 4.82 µM | > 30 µM | > 30 µM | – | 3.8 µM | > 10 µM | – | – | –
O=C(O)c1cc(-c2ccc(F)cc2F)ccc1O [DIFLUNISAL] | – | – | – | – | – | – | – | > 30 µM | > 10 µM | > 10 µM | –
Cc1c(-c2ccccc2)oc2c(C(=O)OCCN3CCCCC3)cccc2c1=O [FLAVOXATE] | 3.39 µM | 5.29 µM | > 30 µM | > 30 µM | > 30 µM | > 30 µM | – | – | – | – | –
O=C1CC[C@@]2(O)[C@H]3Cc4ccc(O)c5c4[C@@]2(CCN3CC2CC2)[C@H]1O5 [NALTREXONE] | > 30 µM | > 30 µM | > 30 µM | > 30 µM | > 30 µM | – | – | – | – | – | –
CN1C(=O)CC(C)(c2ccccc2)C1=O (stereo unspecified) [METHSUXIMIDE] | – | – | – | – | – | – | – | > 30 µM | > 10 µM | > 10 µM | > 10 µM
CC(N)Cc1ccccc1 (stereo unspecified) [AMPHETAMINE] | – | – | – | – | – | – | > 30 µM | – | > 30 µM | > 30 µM | –
CCc1nn(CCCN2CCN(c3cccc(Cl)c3)CC2)c(=O)n1CCOc1ccccc1 [NEFAZODONE] | – | – | – | – | – | – | – | 3.8 µM | > 30 µM | > 30 µM | –
CCCS(=O)(=O)Nc1ccc(F)c(C(=O)c2c[nH]c3ncc(-c4ccc(Cl)cc4)cc23)c1F [VEMURAFENIB] | – | – | – | – | – | – | > 30 µM | – | > 30 µM | – | > 30 µM
NC[C@H]1CC[C@H](C(=O)O)CC1 [TRANEXAMIC ACID] | – | – | – | – | – | – | – | > 30 µM | > 10 µM | > 10 µM | –
C[C@H]1C[C@@H]2[C@H]([C@@H](O)C[C@@]3(C)[C@H]2CC[C@]3(O)C(=O)CO)[C@@]2(C)C=CC(=O)C=C12 [METHYLPREDNISOLONE] | – | – | – | – | – | – | – | > 30 µM | > 10 µM | > 10 µM | –
CNC(=O)c1cc(Oc2ccc(NC(=O)Nc3ccc(Cl)c(C(F)(F)F)c3)cc2)ccn1 [SORAFENIB] | – | – | – | – | – | – | > 30 µM | > 30 µM | > 30 µM | – | –
NS(=O)(=O)c1cc2c(cc1Cl)NCNS2(=O)=O [HYDROCHLOROTHIAZIDE] | – | – | – | – | – | – | > 10 µM | > 10 µM | > 30 µM | > 30 µM | –
CC(C(=O)O)c1ccc(C(=O)c2cccs2)cc1 (stereo unspecified) [SUPROFEN] | – | – | – | – | – | – | > 10 µM | > 30 µM | > 10 µM | > 10 µM | > 10 µM
C[C@@H]1O[C@@H]1P(=O)(O)O [FOSFOMYCIN] | – | – | – | – | – | – | – | > 30 µM | > 10 µM | > 10 µM | > 10 µM
COC(=O)N[C@H](C(=O)N[C@@H](Cc1ccccc1)[C@@H](O)CN(Cc1ccc(-c2ccccn2)cc1)NC(=O)[C@@H](NC(=O)OC)C(C)(C)C)C(C)(C)C [ATAZANAVIR] | – | – | – | – | – | – | > 10 µM | > 30 µM | > 30 µM | > 30 µM | > 30 µM
NC1=NC(=O)C(c2ccccc2)O1 (stereo unspecified) [PEMOLINE] | – | – | – | – | – | – | > 10 µM | > 30 µM | > 30 µM | > 30 µM | –
C[N+]1(C)[C@@H]2C[C@@H](OC(=O)[C@H](CO)c3ccccc3)C[C@H]1[C@@H]1O[C@@H]12 [METHSCOPOLAMINE] | – | > 30 µM | > 30 µM | > 30 µM | > 30 µM | > 30 µM | – | – | – | – | –
NC[C@H]1O[C@H](O[C@H]2[C@H](O)[C@@H](O[C@H]3O[C@H](CO)[C@@H](O)[C@H](N)[C@H]3O)[C@H](N)C[C@@H]2N)[C@H](O)[C@@H](O)[C@@H]1O [KANAMYCIN] | – | – | – | – | – | – | – | > 30 µM | > 10 µM | > 10 µM | –
COC(=O)C1=C(C)NC(C)=C(C(=O)OCC(C)C)C1c1ccccc1[N+](=O)[O-] (stereo unspecified) [NISOLDIPINE] | – | – | – | – | – | – | – | 9.4 µM | > 10 µM | > 10 µM | –
CC(C)NCC(O)COc1ccc(COCCOC(C)C)cc1 (stereo unspecified) [BISOPROLOL] | – | – | – | – | – | – | > 10 µM | > 10 µM | > 30 µM | > 30 µM | > 10 µM
COC(=O)N[C@H](C(=O)N1CCC[C@H]1c1nc(-c2ccc(-c3ccc(-c4c[nH]c([C@@H]5CCCN5C(=O)[C@@H](NC(=O)OC)C(C)C)n4)cc3)cc2)c[nH]1)C(C)C | – | – | – | – | – | – | > 30 µM | – | > 30 µM | – | > 30 µM
C#C[C@]1(O)CC[C@H]2[C@@H]3CCc4cc(O)ccc4[C@H]3CC[C@@]21C [ETHINYL ESTRADIOL] | > 30 µM | – | 0.8 µM | > 30 µM | > 30 µM | – | > 10 µM | > 30 µM | > 30 µM | > 30 µM | –
CC(C)(C(=O)c1cccnc1)c1cccnc1 [METYRAPONE] | – | – | – | – | – | – | – | > 30 µM | > 10 µM | > 10 µM | –
COc1ccc2c(c1)C(=O)N(CCc1ccc(S(=O)(=O)NC(=O)NC3CCCCC3)cc1)C(=O)C2(C)C [GLIQUIDONE] | – | – | – | – | – | – | > 30 µM | – | > 30 µM | – | > 30 µM
OCc1cc([C@@H](O)CNCCCCCCOCCOCc2c(Cl)cccc2Cl)ccc1O [VILANTEROL] | – | – | – | – | – | – | > 30 µM | > 30 µM | – | – | 2.8 µM
Cc1ccc(C(=O)c2cc(O)c(O)c([N+](=O)[O-])c2)cc1 [TOLCAPONE] | – | – | – | – | – | – | > 10 µM | > 30 µM | > 10 µM | > 10 µM | > 30 µM
CCC(=O)O[C@H]1[C@H](O[C@@H]2[C@@H](C)[C@H](O[C@H]3C[C@@](C)(OC)[C@@H](O)[C@H](C)O3)[C@@H](C)C(=O)O[C@H](CC)[C@@](C)(O)[C@H](O)[C@@H](C)C(=O)[C@H](C)C[C@@]2(C)O)O[C@H](C)C[C@@H]1N(C)C [ERYTHROMYCIN PROPIONATE] | > 30 µM | – | 29.1 µM | > 30 µM | > 30 µM | > 30 µM | – | – | – | – | –

From ChEMBL document CHEMBL5291721, “A preclinical secondary pharmacology resource illuminates target-adverse drug reaction associations of marketed drugs” (Nat Commun, 2023)
